From patent publication US20210395313A1, “PEPTIDE PAC1 ANTAGONISTS” (AMGEN INC., priority 2017, published 2021) come the findings set out here.

The target of assay [1] is T1, human PAC1 receptor (Homo sapiens, UniProt P41586).
T1 construct: SHSY-5Y (human neuroblastoma cell line) and RG-2 (rat glioma cell line) cells endogenously express human and rat PAC1 receptors, respectively; endogenous in cells; host or cells: SHSY-5Y human neuroblastoma cells
T1 sequence (P41586 21-468): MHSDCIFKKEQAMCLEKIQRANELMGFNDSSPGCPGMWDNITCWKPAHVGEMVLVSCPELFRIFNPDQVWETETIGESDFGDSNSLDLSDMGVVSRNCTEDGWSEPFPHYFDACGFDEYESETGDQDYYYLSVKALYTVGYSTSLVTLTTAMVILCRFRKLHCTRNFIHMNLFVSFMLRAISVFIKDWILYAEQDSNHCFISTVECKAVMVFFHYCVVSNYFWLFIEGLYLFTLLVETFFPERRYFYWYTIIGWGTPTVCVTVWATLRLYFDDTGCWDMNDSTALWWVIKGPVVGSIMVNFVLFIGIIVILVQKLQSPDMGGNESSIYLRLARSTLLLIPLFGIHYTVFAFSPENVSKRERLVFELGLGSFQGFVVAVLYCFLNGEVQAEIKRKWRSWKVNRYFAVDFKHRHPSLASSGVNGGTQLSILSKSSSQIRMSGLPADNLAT
In words: LANCE Ultra cAMP accumulation antagonist assay in SHSY-5Y cells.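 Further: inhibition of cAMP accumulation evoked by PAC1 agonist at its EC80 in SHSY-5Y cells endogenously expressing receptor, 30 min preincubation then 15 min agonist, TR-FRET readout.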 The class given is cell-based. On the technique in general: In TR-FRET formats the signal depends on donor and acceptor labels being close together.

Assay [2] has as its target T2, rat PAC1 receptor (Rattus norvegicus, UniProt P32215).
T2 construct: SHSY-5Y (human neuroblastoma cell line) and RG-2 (rat glioma cell line) cells endogenously express human and rat PAC1 receptors, respectively; endogenous in cells; host or cells: RG-2 rat glioma cells
T2 sequence (P32215 20-523): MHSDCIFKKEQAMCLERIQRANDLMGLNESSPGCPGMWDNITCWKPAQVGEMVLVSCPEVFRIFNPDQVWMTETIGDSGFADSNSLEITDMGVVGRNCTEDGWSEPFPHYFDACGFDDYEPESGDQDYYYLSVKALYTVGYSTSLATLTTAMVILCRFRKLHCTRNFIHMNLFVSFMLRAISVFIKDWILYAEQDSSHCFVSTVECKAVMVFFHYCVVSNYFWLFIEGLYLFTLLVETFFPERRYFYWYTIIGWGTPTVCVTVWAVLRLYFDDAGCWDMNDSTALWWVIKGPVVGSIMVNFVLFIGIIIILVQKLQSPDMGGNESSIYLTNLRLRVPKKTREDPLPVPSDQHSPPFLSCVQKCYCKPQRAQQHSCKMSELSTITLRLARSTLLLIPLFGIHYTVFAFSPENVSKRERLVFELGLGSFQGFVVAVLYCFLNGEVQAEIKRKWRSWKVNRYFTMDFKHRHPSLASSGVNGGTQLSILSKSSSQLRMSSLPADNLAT
In words: LANCE Ultra cAMP accumulation antagonist assay in RG-2 cells.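 Further: RG-2 rat glioma cells endogenously expressing PAC1, test peptide preincubated 30 min, then PAC1 agonist added at its EC80 for 15 min, cAMP accumulation read by LANCE Ultra.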 The class given is cell-based.

Where a SMILES comes first, the peptide text is derived from it. Bridges are numbered along the chain shown (N, C = ends). A value given as a limit tells only on which side of the number the result lay.

By IC50 is commonly meant the concentration needed to halve the response being measured. Read a low IC50 as greater potency in that assay. As for `CC[C@H](C)[C@H](NC(=O)[C@H](C)NC(=O)[C@H](CCCCN)NC(=O)[C@H](CCCNC(=N)N)NC(=O)[C@H](Cc1ccccc1)NC(=O)[C@H](CCC(N)=O)NC(=O)[C@@H]1CSSC[C@H](N)C(=O)N[C@@H](CC(=O)O)C(=O)N[C@@H](C)C(=O)N[C@@H]([C@@H](C)O)C(=O)N1)C(=O)N[C@@H](CC(=O)O)C(=O)N[C@@H](CC(=O)O)C(=O)N[C@H]1CSSC[C@@H](C(=O)N[C@@H](CCSC)C(=O)N[C@@H](CCCCN)C(=O)N[C@@H](CCC(N)=O)C(=O)N[C@@H](CCCCN)C(=O)N[C@@H](CCCCN)C(=O)N[C@@H](CCCCN)C(=O)N[C@@H](CCC(=O)O)C(=O)N[C@@H](Cc2ccccc2)C(=O)N[C@@H](CCCCN)C(N)=O)NC(=O)[C@H](CCC(=O)O)NC(=O)[C@H](CCCCN)NC(=O)[C@H](Cc2ccccc2)NC(=O)[C@H](C(C)C)NC(=O)[C@H](CO)NC(=O)[C@H](CO)NC(=O)[C@H](Cc2c[nH]cn2)NC(=O)[C@H](Cc2c[nH]cn2)NC(=O)[C@H](C)NC(=O)[C@H](CCC(N)=O)NC(=O)[C@H](CCCCN)NC(=O)[C@H](CC(=O)O)NC1=O` [compound 223], the IC50 in assay [1] is under 0.01 nM; in assay [2] it was 1 to 100 nM.
`CC[C@H](C)[C@H](NC(=O)[C@H](C)NC(=O)[C@H](CCCCN)NC(=O)[C@H](CCCNC(=N)N)NC(=O)[C@H](Cc1ccccc1)NC(=O)[C@H](CCC(N)=O)NC(=O)[C@@H]1CSSC[C@H](N)C(=O)N[C@@H](CC(=O)O)C(=O)N[C@@H](C)C(=O)N[C@@H]([C@@H](C)O)C(=O)N1)C(=O)N[C@@H](CC(=O)O)C(=O)N[C@@H](CC(=O)O)C(=O)N[C@H]1CSSC[C@@H](C(=O)N[C@@H](CCSC)C(=O)N[C@@H](CCCCN)C(=O)N[C@@H](CCC(N)=O)C(=O)N[C@@H](CCCCN)C(=O)N[C@@H](CCCCN)C(=O)N[C@@H](CCCCN)C(=O)N[C@@H](CCC(=O)O)C(=O)N[C@@H](Cc2ccccc2)C(=O)N[C@@H](CCCCN)C(N)=O)NC(=O)[C@H](CCC(=O)O)NC(=O)[C@H](CCCCN)NC(=O)[C@H](Cc2ccccc2)NC(=O)[C@H](CO)NC(=O)[C@H](CC(N)=O)NC(=O)[C@H](CO)NC(=O)[C@H](Cc2c[nH]cn2)NC(=O)[C@H](Cc2c[nH]cn2)NC(=O)[C@H](C)NC(=O)[C@H](CCC(N)=O)NC(=O)[C@H](CCCCN)NC(=O)[C@H](CCC(N)=O)NC1=O` [compound 224] (H-CDATCQFRKAIDDCQKQAHHSNSFKECMKQKKKEFK-NH2; disulfide 1-5, 14-27): the half-maximal inhibitory concentration (IC50) in assay [1] fell in the range of 0.01 to 1 nM; in assay [2], 1 to 100 nM.
On the same counts, the results for `CC[C@H](C)[C@H](NC(=O)[C@H](C)NC(=O)[C@H](CCCCN)NC(=O)[C@H](CCCNC(=N)N)NC(=O)[C@H](Cc1ccccc1)NC(=O)[C@H](CCC(N)=O)NC(=O)[C@@H]1CSSC[C@H](N)C(=O)N[C@@H](CC(=O)O)C(=O)N[C@@H](C)C(=O)N[C@@H]([C@@H](C)O)C(=O)N1)C(=O)N[C@@H](CC(=O)O)C(=O)N[C@@H](CC(=O)O)C(=O)N[C@H]1CSSC[C@@H](C(=O)N[C@@H](CCSC)C(=O)N[C@@H](CCCCN)C(=O)N[C@@H](CCC(N)=O)C(=O)N[C@@H](CCCCN)C(=O)N[C@@H](CCCCN)C(=O)N[C@@H](CCCCN)C(=O)N[C@@H](CCC(=O)O)C(=O)N[C@@H](Cc2ccccc2)C(=O)N[C@@H](CCCCN)C(N)=O)NC(=O)[C@H](CCC(=O)O)NC(=O)[C@H](CCCCN)NC(=O)[C@H](Cc2ccccc2)NC(=O)[C@H](C(C)C)NC(=O)[C@H](CO)NC(=O)[C@H](CO)NC(=O)[C@H](Cc2c[nH]cn2)NC(=O)[C@H](Cc2c[nH]cn2)NC(=O)[C@H](C)NC(=O)[C@H](CCC(N)=O)NC(=O)[C@H](CCCCN)NC(=O)[C@H](CCC(N)=O)NC1=O` [compound 225] (H-CDATCQFRKAIDDCQKQAHHSSVFKECMKQKKKEFK-NH2; disulfide 1-5, 14-27) are 0.01 to 1 nM and 1 to 100 nM.
For `CC[C@H](C)[C@H](NC(=O)[C@H](C)NC(=O)[C@H](CCCCN)NC(=O)[C@H](CCCNC(=N)N)NC(=O)[C@H](Cc1ccccc1)NC(=O)[C@H](CCC(N)=O)NC(=O)[C@@H]1CSSC[C@H](N)C(=O)N[C@@H](CC(=O)O)C(=O)N[C@@H](C)C(=O)N[C@@H]([C@@H](C)O)C(=O)N1)C(=O)N[C@@H](CC(=O)O)C(=O)N[C@@H](CC(=O)O)C(=O)N[C@H]1CSSC[C@@H](C(=O)N[C@@H](CCSC)C(=O)N[C@@H](CCCCN)C(=O)N[C@@H](CCC(N)=O)C(=O)N[C@@H](CCCCN)C(=O)N[C@@H](CCCCN)C(=O)N[C@@H](CCCCN)C(=O)N[C@@H](CCC(=O)O)C(=O)N[C@@H](Cc2ccccc2)C(=O)N[C@@H](CCCCN)C(N)=O)NC(=O)[C@H](CCC(=O)O)NC(=O)[C@H](CCCCN)NC(=O)[C@H](Cc2ccccc2)NC(=O)[C@H](C(C)C)NC(=O)[C@H](CO)NC(=O)[C@H](CC(N)=O)NC(=O)CNC(=O)[C@H](C(C)C)NC(=O)[C@H](CC(N)=O)NC(=O)[C@H](CO)NC(=O)[C@H](Cc2c[nH]cn2)NC(=O)[C@H](Cc2c[nH]cn2)NC(=O)[C@H](C)NC(=O)[C@H](CCC(N)=O)NC(=O)[C@H](CCCCN)NC(=O)[C@H](CCC(N)=O)NC1=O` [compound 275] (H-CDATCQFRKAIDDCQKQAHHSNVGNSVFKECMKQKKKEFK-NH2; disulfide 1-5, 14-31) the same measures were 1 to 100 nM and 1 to 100 nM.
On to `CC[C@H](C)[C@H](NC(=O)[C@H](C)NC(=O)[C@H](CCCCN)NC(=O)[C@H](CCCNC(=N)N)NC(=O)[C@H](Cc1ccccc1)NC(=O)[C@H](CCC(N)=O)NC(=O)[C@@H]1CSSC[C@H](N)C(=O)N[C@@H](CC(=O)O)C(=O)N[C@@H](C)C(=O)N[C@@H]([C@@H](C)O)C(=O)N1)C(=O)N[C@@H](CC(=O)O)C(=O)N[C@@H](CC(=O)O)C(=O)N[C@H]1CSSC[C@@H](C(=O)N[C@@H](CCSC)C(=O)N[C@@H](CCCCN)C(=O)N[C@@H](CCC(N)=O)C(=O)N[C@@H](CCCCN)C(=O)N[C@@H](CCCCN)C(=O)N[C@@H](CCCCN)C(=O)N[C@@H](CCC(=O)O)C(=O)N[C@@H](Cc2ccccc2)C(=O)N[C@@H](CCCCN)C(N)=O)NC(=O)[C@H](CCC(=O)O)NC(=O)[C@H](CCCCN)NC(=O)[C@H](Cc2ccccc2)NC(=O)[C@H](C(C)C)NC(=O)[C@H](CO)NC(=O)CNC(=O)[C@@H]2CCCN2C(=O)[C@H](C(C)C)NC(=O)[C@H](CC(N)=O)NC(=O)[C@H](CO)NC(=O)[C@H](Cc2c[nH]cn2)NC(=O)[C@H](Cc2c[nH]cn2)NC(=O)[C@H](C)NC(=O)[C@H](CCC(N)=O)NC(=O)[C@H](CCCCN)NC(=O)[C@H](CCC(N)=O)NC1=O` [compound 293], for which the values for the IC50 in assay [1] and in assay [2] were 1 to 100 nM and 0.01 to 1 nM, respectively.
For `CC[C@H](C)[C@H](NC(=O)[C@H](C)NC(=O)[C@H](CCCCN)NC(=O)[C@H](CCCNC(=N)N)NC(=O)[C@H](Cc1ccccc1)NC(=O)[C@H](CCC(N)=O)NC(=O)[C@@H]1CSSC[C@H](N)C(=O)N[C@@H](CC(=O)O)C(=O)N[C@@H](C)C(=O)N[C@@H]([C@@H](C)O)C(=O)N1)C(=O)N[C@@H](CC(=O)O)C(=O)N[C@@H](CC(=O)O)C(=O)N[C@H]1CSSC[C@@H](C(=O)N[C@@H](CCSC)C(=O)N[C@@H](CCCCN)C(=O)N[C@@H](CCC(N)=O)C(=O)N[C@@H](CCCCN)C(=O)N[C@@H](CCCCN)C(=O)N[C@@H](CCCCN)C(=O)N[C@@H](CCC(=O)O)C(=O)N[C@@H](Cc2ccccc2)C(=O)N[C@@H](CCCCN)C(N)=O)NC(=O)[C@H](CCC(=O)O)NC(=O)[C@H](CCCCN)NC(=O)[C@H](Cc2ccccc2)NC(=O)[C@H](C(C)C)NC(=O)[C@H](CO)NC(=O)[C@H](CC(N)=O)NC(=O)CNC(=O)[C@@H]2CCCN2C(=O)[C@H](C(C)C)NC(=O)[C@H](CC(N)=O)NC(=O)[C@H](CO)NC(=O)[C@H](Cc2c[nH]cn2)NC(=O)[C@H](Cc2c[nH]cn2)NC(=O)[C@H](C)NC(=O)[C@H](CCC(N)=O)NC(=O)[C@H](CCCCN)NC(=O)[C@H](CC(=O)O)NC1=O` [compound 295], the IC50 is 1 to 100 nM in assay [1] and 0.01 to 1 nM in assay [2].
